Non-standard residues stand in square brackets, D forms with d. Residues, ends and D or L forms follow the SMILES beside them. No end group written: not given here.
Columns and labels:
EphB4 = biological target: T1, EphB4 (Homo sapiens, UniProt P54760); experiment: SPR (BIACore) binding of peptides to immobilized EphB4; conditions: Table S1; SPR BIACore, EphB4 immobilized on CM5 chip, 25°C, HBSEP buffer pH 7.4, peptides 1.6-800 nM, duplicate, KD = Koff/Kon, 1:1 Langmuir model
T1 construct: purchased R&D Systems
T1 sequence (P54760 16-987): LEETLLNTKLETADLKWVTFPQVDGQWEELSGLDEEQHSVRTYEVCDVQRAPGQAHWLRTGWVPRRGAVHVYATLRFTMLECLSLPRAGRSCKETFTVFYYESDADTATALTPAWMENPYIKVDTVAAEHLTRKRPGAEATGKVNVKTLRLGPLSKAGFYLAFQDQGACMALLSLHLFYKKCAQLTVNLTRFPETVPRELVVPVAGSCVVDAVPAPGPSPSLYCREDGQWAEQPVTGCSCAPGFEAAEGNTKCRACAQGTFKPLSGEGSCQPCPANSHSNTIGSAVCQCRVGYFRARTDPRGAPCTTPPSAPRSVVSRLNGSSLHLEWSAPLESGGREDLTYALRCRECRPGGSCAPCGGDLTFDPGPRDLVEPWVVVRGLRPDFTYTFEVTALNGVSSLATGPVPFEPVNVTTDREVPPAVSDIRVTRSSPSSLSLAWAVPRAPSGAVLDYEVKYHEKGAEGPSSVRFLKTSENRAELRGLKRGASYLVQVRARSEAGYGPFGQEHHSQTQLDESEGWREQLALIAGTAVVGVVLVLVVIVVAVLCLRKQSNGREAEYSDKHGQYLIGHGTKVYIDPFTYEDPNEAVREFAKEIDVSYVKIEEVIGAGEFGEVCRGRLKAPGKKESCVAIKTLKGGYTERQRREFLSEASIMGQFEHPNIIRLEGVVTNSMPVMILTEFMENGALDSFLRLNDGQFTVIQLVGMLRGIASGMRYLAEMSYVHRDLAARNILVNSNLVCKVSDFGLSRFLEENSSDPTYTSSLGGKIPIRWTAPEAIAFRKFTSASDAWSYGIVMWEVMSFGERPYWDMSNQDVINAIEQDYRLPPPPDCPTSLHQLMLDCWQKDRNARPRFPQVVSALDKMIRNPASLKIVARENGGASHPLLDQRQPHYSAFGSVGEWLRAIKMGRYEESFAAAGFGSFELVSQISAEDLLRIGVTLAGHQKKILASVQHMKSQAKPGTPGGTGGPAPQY
Source text: Surface plasmon resonance (SPR) binding and competition assays.
Immunoblotting, immunoprecipitation, and co-immunoprecipitation.

[1] = systemic exposure; cited from earlier work
Source text: Our group previously employed CCPM successfully to improve pharmacokinetics and enhance peptide stability for in vivo imaging applications[28]–[31]. The cross-linked core of CCPM prevents premature micelle disintegration, while the brush-like polyethylene glycol forms a dense protective layer on the micelle surface that minimizes micelle uptake by the organs of the mononuclear phagocytic system.

[2] = biological target: T2, recombinant human EphB4 (human), P54760; experiment: SPR; BIACore 3000; rhEphB4 amine-coupled to CM5 chips; peptides injected at 1.6 nM to 800 nM, 30 uL/min, in duplicate; 25 C; HBSEP buffer (0.01 M HEPES pH 7.4, 0.15 M NaCl, 3 mM EDTA, 0.005% P20); 1:1 Langmuir binding model, KD = Koff/Kon
T2 chain: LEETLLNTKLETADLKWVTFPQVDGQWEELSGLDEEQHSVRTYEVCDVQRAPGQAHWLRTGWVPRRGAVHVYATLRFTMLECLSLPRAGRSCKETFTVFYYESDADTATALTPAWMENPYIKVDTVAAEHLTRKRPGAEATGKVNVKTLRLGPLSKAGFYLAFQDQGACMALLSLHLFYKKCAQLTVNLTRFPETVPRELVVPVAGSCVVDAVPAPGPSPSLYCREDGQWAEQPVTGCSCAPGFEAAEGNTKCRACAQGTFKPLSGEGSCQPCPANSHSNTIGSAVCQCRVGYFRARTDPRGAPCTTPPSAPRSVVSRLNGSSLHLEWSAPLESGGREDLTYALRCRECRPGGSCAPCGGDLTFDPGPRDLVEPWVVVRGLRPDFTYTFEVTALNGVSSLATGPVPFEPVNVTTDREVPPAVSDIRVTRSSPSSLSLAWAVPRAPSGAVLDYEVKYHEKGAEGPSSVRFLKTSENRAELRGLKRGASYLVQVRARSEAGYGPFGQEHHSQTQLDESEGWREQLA

recombinant human EphB4 = biological target: T3, recombinant human EphB4 (human, UniProt P54760 16-539); experiment: as above; conditions: both partners purified
T3 construct: EphB4 (ephrin type-B receptor 4), human, recombinant; Amine-coupled to CM5 chips for SPR; a soluble extracellular form is likely; In the functional rows it stands for the EphB4 of the ovarian cancer cells; also called rhEphB4; source: bought: R&D Systems
T3 sequence (looked up): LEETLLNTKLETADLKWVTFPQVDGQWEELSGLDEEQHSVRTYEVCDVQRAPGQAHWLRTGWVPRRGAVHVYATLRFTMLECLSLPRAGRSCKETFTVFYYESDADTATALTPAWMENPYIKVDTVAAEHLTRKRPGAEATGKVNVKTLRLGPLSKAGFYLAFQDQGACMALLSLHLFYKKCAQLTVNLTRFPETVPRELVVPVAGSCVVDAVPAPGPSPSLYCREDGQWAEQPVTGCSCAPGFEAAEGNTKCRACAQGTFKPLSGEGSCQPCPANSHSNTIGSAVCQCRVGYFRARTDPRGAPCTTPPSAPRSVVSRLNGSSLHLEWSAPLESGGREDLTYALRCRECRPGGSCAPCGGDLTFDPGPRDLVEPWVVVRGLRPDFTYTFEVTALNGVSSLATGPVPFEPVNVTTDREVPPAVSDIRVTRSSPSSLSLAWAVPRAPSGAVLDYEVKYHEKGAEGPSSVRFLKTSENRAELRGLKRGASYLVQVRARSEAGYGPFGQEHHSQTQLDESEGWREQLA

[3] = biological target: T4, EphB4, purified recombinant human (rhEphB4) (human, UniProt P54760 16-987); experiment: SPR; EphB4 immobilised on sensor chips, peptides or CCPM-BIDEN-AP injected; BIACore 3000; BIDEN-AP data fitted to a 1:1 mass transfer interaction model; details in the Supplementary Information; conditions: both partners purified
[4] = biological target: T4, EphB4, purified recombinant human …; experiment: SPR; competition: serial dilutions of BIDEN-AP (2 nM to 1000 nM) mixed with human EphB4 (30 nM) and injected onto EFNB2-Fc-coated CM-5 chips; conditions: both partners purified
RF24 cells = experiment: Tubule formation of immortalized endothelial cells on Matrigel; type: cell-based; conditions: BIDEN-AP 15 µM or EFNB2-Fc 2 nM, 24 h, number of nodes (Fig. 4A,B)
Procedure: Figure 4 BIDEN-AP–based agents inhibit tube formation and sensitize resistant endothelial cells to anti-VEGF antibody. (A,B) Tube formation by RF24 cells treated with EFNB2-Fc (2 nM) or BIDEN-AP (15 µM) compared to untreated controls (CTL). Representative data from three independent experiments are presented. (A) Representative microphotographs of tubes formed by RF24 cells are shown (n = 3). Images were taken at × 100 magnification. (B) Quantification of the number of nodes per field in three technical replicates. […] (C) Representative flow cytometry plots from three independent experiments of RF24_Bev cells are shown here. SYTOX-negative staining represents the live cell population.
Matrigel (Becton Dickinson, Bedford, MA) was used to assess formation of capillary-like structures by RF24 cells on a basement membrane. Twelve-well Costar plates (Corning, Corning, NY) were coated with Matrigel (10 mg/mL) according to the manufacturer’s instructions. RF24 cells (1.0 × 10^4 cells/well) were seeded on Matrigel-coated plates and incubated at 37 °C for 60 min. […] The degree of tubule formation was determined by the number of nodes. […] The nodes for each image were counted manually. Five images (×100 magnification) per treatment were counted double blindly. Data are expressed as a percentage of the number of tubes in untreated control wells.

Molecule: YSA-TNYL-RAW-dimer [B4-003]
- Kd (EphB4): 21 nM

Molecule: TNYLFSPNGPIARA-NH2 [B4-008]
- Kd (EphB4): 13 nM

Molecule: CC[C@H](C)[C@H](NC(=O)[C@@H]1CCCN1C(=O)CNC(=O)[C@H](CC(N)=O)NC(=O)[C@@H]1CCCN1C(=O)[C@H](CO)NC(=O)[C@H](Cc1ccccc1)NC(=O)[C@@H](CC(C)C)NC(=O)[C@H](Cc1ccc(O)cc1)NC(=O)[C@H](CC(N)=O)NC(=O)[C@@H](N)[C@@H](C)O)C(=O)N[C@@H](C)C(=O)N[C@@H](CCCNC(=N)N)C(=O)N[C@@H](C)C(=O)N[C@@H](Cc1c[nH]c2ccccc12)C(N)=O [B4-004] (H-TNY[dL]FSPNGPIARAW-NH2)
- Kd (EphB4): 65 nM

Molecule: CC[C@H](C)[C@H](NC(=O)[C@@H]1CCCN1C(=O)CNC(=O)[C@H](CC(N)=O)NC(=O)[C@@H]1CCCN1C(=O)[C@H](CO)NC(=O)[C@@H](Cc1ccccc1)NC(=O)[C@H](CC(C)C)NC(=O)[C@H](Cc1ccc(O)cc1)NC(=O)[C@H](CC(N)=O)NC(=O)[C@@H](N)[C@@H](C)O)C(=O)N[C@@H](C)C(=O)N[C@@H](CCCNC(=N)N)C(=O)N[C@@H](C)C(=O)N[C@@H](Cc1c[nH]c2ccccc12)C(N)=O [B4-005] (H-TNYL[dF]SPNGPIARAW-NH2)
- Kd (EphB4): 75 nM

Molecule: TNYLFSPNGPIARAW-NH2 [TNYL-RAW]
- area-under-the time curve [AUC] [1]: 29.1 %ID h/mL

Molecule: CC[C@H](C)[C@H](NC(=O)[C@@H]1CCCN1C(=O)CNC(=O)[C@H](CC(N)=O)NC(=O)[C@@H]1CCCN1C(=O)[C@H](CO)NC(=O)[C@H](Cc1ccccc1)NC(=O)[C@H](CC(C)C)NC(=O)[C@H](Cc1ccc(O)cc1)NC(=O)[C@H](CC(N)=O)NC(=O)[C@@H](N)[C@@H](C)O)C(=O)N[C@@H](C)C(=O)N[C@H](CCCNC(=N)N)C(=O)N[C@@H](C)C(=O)N[C@@H](Cc1c[nH]c2ccccc12)C(N)=O [B4-002]
- Kd (EphB4): 39 nM

Molecule: TNYLFSPNGPIARAW (modifications not checked) [YSA-TNYL-RAW-dimer]
- Kd [2]: 21 nM

B1: Cyclo(KTNYLFSPNGPIARAWD) (peptide)
peptide: KTNYLFSPNGPIARAWD
modifications: also: cyclic, ring bond not given here
notes: TNYL-RAW with an added Lys before and Asp after it, cyclised; MW 1932 Da; also called B4-001; source: synthetic peptide (solid phase, Rink resin, HPLC purified)
- Kd (recombinant human EphB4): 4.4 nM

B2: TNYL-RAW (peptide)
peptide: TNYLFSPNGPIARAW
notes: known EphB4 antagonist peptide, 15 residues (P1-P15); Made on Rink resin, so a C-terminal amide is likely; source: synthetic peptide (solid phase, Rink resin, HPLC purified)
- Kd (recombinant human EphB4): 3.1 nM

B3: BIDEN-AP (bi-directional ephrin agonist peptide), TNd(Y)LFSPNGPIARAW (peptide)
peptide: TN[dY]LFSPNGPIARAW
notes: TNYL-RAW with L-Tyr-P3 replaced by D-Tyr; source: synthetic peptide
- Kd [3]: 7 nM
- IC50 [4]: 4 nM

B4: EFNB2-Fc: ephrin B2 ligand fused to Fc, natural ligand of EphB4 (protein)
chain: IVLEPIYWNSSNSKFLPGQGLVLYPQIGDKLDIICPKVDSKTVGQYEYYKVYMVDKDQADRCTIKKENTPLLNCAKPDQDIKFTIKFQEFSPNLWGLEFQKNKDYYIISTSNGSLEGLDNQEGGVCQTRAMKILMKVGQDASSAGSTRNKDPTRRPELEAGTNGRSSTTSPFVKPNPGSSTDGNSAGHSGNNILGSEVALFA
modifications: left off: Fc, end not stated, kept
notes: ephrin B2 ligand fused to Fc, natural ligand of EphB4
- formation of capillary-like tubes (RF24 cells): significantly inhibited the formation of capillary-like tubes

Reference: paper PMC6965176, “Targeting Forward and Reverse EphB4/EFNB2 Signaling by a Peptide with Dual Functions” (Scientific Reports, 2020)
